Structures can show the parent of a compound that is named as a salt.
Molecular target: Bek (Homo sapiens, UniProt P21802)
Assay: Inhibitory activity against Bek-autophosphorylation using ELISA method in OCUM-2MD3 cells
Assay type: cell-based
Settings: 1 hr with compound, read-out: IC50 (concentration necessary for inhibiting 50% of Bek-phosphorylation)
Procedure, shortened: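 Sandwich ELISA (anti-phosphotyrosine capture, anti-Bek detection, peroxidase, 450 nm) measured Bek autophosphorylation in OCUM-2MD3 lysates after 1 hr compound treatment at 37° C in 0.1% serum medium. IC50 derived by scaling between no-drug (100%) and excess positive control at 1000 nM (0%).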

Sequence of Bek (P21802 431-767 limits assumed): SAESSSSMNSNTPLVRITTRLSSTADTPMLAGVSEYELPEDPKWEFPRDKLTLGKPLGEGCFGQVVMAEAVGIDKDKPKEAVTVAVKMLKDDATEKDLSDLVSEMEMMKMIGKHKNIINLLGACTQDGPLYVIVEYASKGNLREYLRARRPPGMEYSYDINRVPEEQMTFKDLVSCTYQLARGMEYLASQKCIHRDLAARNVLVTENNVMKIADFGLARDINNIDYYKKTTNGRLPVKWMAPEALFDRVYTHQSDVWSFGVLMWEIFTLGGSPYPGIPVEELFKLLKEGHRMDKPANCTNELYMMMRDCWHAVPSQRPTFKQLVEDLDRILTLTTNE

COc1cc2c(Oc3ccc(NC(=O)NCCC(C)(C)C)c(F)c3)ccnc2cc1OCCN(C)CCO [Compound 330, 1-(3,3-Dimethyl-butyl)-3-[2-fluoro-4-(7-{2-[(2-hydroxy-ethyl)-methyl-amino]-ethoxy}-6-methoxy-quinolin-4-yloxy)-phenyl]-urea]
IC50: 17.8 nM

COc1cc2c(Oc3ccc(NC(=O)NCCC(C)(C)C)cc3)ccnc2cc1OCCCN1CCCCC1 [Compound 154, 1-(3,3-Dimethyl-butyl)-3-{4-[6-methoxy-7-(3-piperidin-1-yl-propoxy)-quinolin-4-yloxy]-phenyl}-urea hydrochloride]
IC50: 24.4 nM

COc1cc2c(Oc3ccc(NC(=O)NCCC(C)(C)C)cc3F)ccnc2cc1OCCN1CCC(O)CC1 [Compound 296, 1-(3,3-Dimethyl-butyl)-3-(3-fluoro-4-{7-[2-(4-hydroxy-piperidin-1-yl)-ethoxy]-6-methoxy-quinolin-4-yloxy}-phenyl)-urea]
IC50: 19.8 nM

COc1cc2c(Oc3ccc(NC(=O)NCCC(C)(C)C)cc3)ccnc2cc1OCCCN1CCC[C@H]1CO [Compound 263, 1-(3,3-Dimethyl-butyl)-3-(4-{7-[3-(2-hydroxymethyl-pyrrolidin-1-yl)-propoxy]-6-methoxy-quinolin-4-yloxy}-phenyl)-urea]
IC50: < 10 nM

COc1cc2c(Oc3ccc(NC(=O)NCCC(C)(C)C)cc3)ccnc2cc1OCCCN1CCN(C)CC1 [Compound 156, 1-(3,3-Dimethyl-butyl)-3-(4-{6-methoxy-7-[3-(4-methyl-piperazin-1-yl)-propoxy]-quinolin-4-yloxy}-phenyl)-urea hydrochloride]
IC50: 19.1 nM

COc1cc2c(Oc3ccc(Nc4ccc(C(C)(C)C)cc4)cc3)ccnc2cc1OCCN(CC(C)O)CC(C)O (stereo not drawn) [Compound 352, 1-[(2-{4-[4-(4-Tert-butyl-phenylamino)-phenoxy]-6-methoxy-quinolin-7-yloxy}-ethyl)-(2-hydroxy-propyl)-amino]-propan-2-ol]
IC50: 54.7 nM

COc1cc2nccc(Oc3ccc(Nc4ccc(C(C)(C)C)cc4)c(C)c3C)c2cc1OC [Compound 16, (4-Tert-butylphenyl)-[4-(6,7-dimethoxyquinolin-4-yloxy)-2,3-dimethylphenyl]amine]
IC50: 242 nM

CCCN(CCO)CCOc1cc2nccc(Oc3ccc(NC(=O)NCCC(C)(C)C)cc3)c2cc1OC [Compound 369, 1-(3,3-Dimethyl-butyl)-3-[4-(7-{2-[(2-hydroxy-ethyl)-propyl-amino]-ethoxy}-6-methoxy-quinolin-4-yloxy)-phenyl]-urea]
IC50: 42.3 nM

COc1cc2c(Oc3ccc(Nc4ccc(C(C)(C)C)cc4)cc3)ccnc2cc1OC[C@@H](O)CN1CCOCC1 [Compound 71, (s)-1-{4-[4-(4-Tert-butylphenylamino)phenoxy]-6-methoxyquinolin-7-yloxy}-3-morpholin-4-ylpropan-2-ol]
IC50: 61.1 nM

COc1cc2c(Oc3ccc(NC(=O)NCCC(C)(C)C)cc3F)ccnc2cc1OCCCN1CCC(O)CC1 [Compound 286, 1-(3,3-Dimethyl-butyl)-3-(3-fluoro-4-{7-[3-(4-hydroxy-piperidin-1-yl)-propoxy]-6-methoxy-quinolin-4-yloxy}-phenyl)-urea]
IC50: 17.2 nM

COc1cc2c(Oc3ccc(Nc4ccc(C(C)(C)C)cc4)cc3Cl)ccnc2cc1OCCN(CCO)CCO [Compound 346, 2-[(2-{4-[4-(4-Tert-butyl-phenylamino)-2-chloro-phenoxy]-6-methoxy-quinolin-7-yloxy}-ethyl)-(2-hydroxy-ethyl)-amino]-ethanol]
IC50: 294 nM

COc1cc2c(Oc3ccc(NC(=O)NCCC(C)(C)C)c(Cl)c3)ccnc2cc1OCCCN1CCCC1 [Compound 179, 1-{2-Chloro-4-[6-methoxy-7-(3-pyrrolidin-1-yl-propoxy)-quinolin-4-yloxy]-phenyl}-3-(3,3-dimethyl-butyl)-urea]
IC50: 17.3 nM

COc1cc2c(Oc3ccc(NC(=O)NCCC(C)(C)C)c(F)c3)ccnc2cc1OCCN1CCC(CO)CC1 [Compound 300, 1-(3,3-Dimethyl-butyl)-3-(2-fluoro-4-{7-[2-(4-hydroxymethyl-piperidin-1-yl)-ethoxy]-6-methoxy-quinolin-4-yloxy}-phenyl)-urea]
IC50: 22.7 nM

COc1cc2nccc(Oc3ccc(Nc4ccc(C(C)(C)C)cc4)cc3F)c2cc1OC [Compound 18, (4-Tert-butylphenyl)-[4-(6,7-dimethoxyquinolin-4-yloxy)-3-fluorophenyl]amine]
IC50: 155 nM

COc1cc2c(Oc3ccc(NC(=O)NCCC(C)(C)C)c(F)c3)ccnc2cc1OCCN1CCC(O)CC1 [Compound 299, 1-(3,3-Dimethyl-butyl)-3-(2-fluoro-4-{7-[2-(4-hydroxy-piperidin-1-yl)-ethoxy]-6-methoxy-quinolin-4-yloxy}-phenyl)-urea]
IC50: 27.4 nM

COc1cc2c(Oc3ccc(NC(=O)NCCC(C)(C)C)cc3)ccnc2cc1OCCN1CCC(N2CCCCC2)CC1 [Compound 123, 1-{4-[7-(2-[1,4′]bipiperidineyl-1′-yl-ethoxy)-6-methoxy-quinolin-4-yloxy]-phenyl}-3-(3,3-dimethyl-butyl)-urea]
IC50: < 10 nM

COc1cc2c(Oc3ccc(NC(=O)NCCC(C)(C)C)c(Cl)c3)ccnc2cc1OCCCN1CCOCC1 [Compound 182, 1-{2-Chloro-4-[6-methoxy-7-(3-morpholin-4-yl-propoxy)-quinolin-4-yloxy]-phenyl}-3-(3,3-dimethyl-butyl)-urea]
IC50: 9.5 nM

CCNCC(O)COc1cc2nccc(Oc3ccc(Nc4ccc(C(C)(C)C)cc4)cc3)c2cc1OC (stereo not drawn) [Compound 66, 1-{4-[4-(4-Tert-butylphenylamino)phenoxy]-6-methoxyquinolin-7-yloxy}-3-ethylaminopropan-2-ol]
IC50: 199 nM

COc1cc2c(Oc3ccc(Nc4ccc(C(C)(C)C)cc4)cc3)ccnc2cc1OCCC(N)=O [Compound 26, 3-{4-[4-(4-Tert-butylphenylamino)phenoxy]-6-methoxyquinolin-7-yloxy}propionamide]
IC50: 318 nM

COc1cc2c(Oc3ccc(NC(=O)NCCC(C)(C)C)c(Cl)c3)ccnc2cc1OC[C@H](O)CN1CCOCC1 [Compound 201, 1-{2-Chloro-4-[7-(2-hydroxy-3-morpholin-4-yl-propoxy)-6-methoxy-quinolin-4-yloxy]-phenyl}-3-(3,3-dimethyl-butyl)-urea]
IC50: < 10 nM

COc1cc2c(Oc3ccc(Nc4ccc(C(C)(C)C)cc4)cc3)ccnc2cc1OCCN1CCCC1 [Compound 39, (4-Tert-butylphenyl)-{4-[6-methoxy-7-(2-pyrrolidin-1-ylethoxy)-quinolin-4-yloxy]phenyl}amine]
IC50: 570 nM

COc1cc2c(Oc3ccc(NC(=O)NCCC(C)(C)C)c(Cl)c3)ccnc2cc1OCCCl [Compound 160, 1-{2-Chloro-4-[7-(2-chloro-ethoxy)-6-methoxy-quinolin-4-yloxy]-phenyl}-3-(3,3-dimethyl-butyl)-urea]
IC50: 23.5 nM

COc1cc2c(Oc3ccc(NC(=O)NCCC(C)(C)C)c(Cl)c3)ccnc2cc1OCCN1CCC(O)CC1 [Compound 274, 1-(2-Chloro-4-{7-[2-(4-hydroxy-piperidin-1-yl)-ethoxy]-6-methoxy-quinolin-4-yloxy}-phenyl)-3-(3,3-dimethyl-butyl)-urea]
IC50: 27.8 nM

COc1ccc(Nc2ccc(Oc3ccnc4cc(OC)c(OC)cc34)cc2)cc1 [Compound 1, [4-(6,7-Dimethoxyquinolin-4-yloxy)phenyl]-(4-methoxyphenyl)-amine]
IC50: 3930 nM

COc1cc2c(Oc3ccc(NC(=O)NCCC(C)(C)C)cc3Cl)ccnc2cc1OCCCN1CCOCC1 [Compound 318, 1-{3-Chloro-4-[6-methoxy-7-(3-morpholin-4-yl-propoxy)-quinolin-4-yloxy]-phenyl}-3-(3,3-dimethyl-butyl)-urea]
IC50: 18.7 nM

COc1cc2c(Oc3ccc(Nc4ccc(C(C)(C)C)cc4)cc3Cl)ccnc2cc1OCCCN1CCC(O)CC1 [Compound 309, 1-(3-{4-[4-(4-Tert-butyl-phenylamino)-2-chloro-phenoxy]-6-methoxy-quinolin-7-yloxy}-propyl)-piperidin-4-ol]
IC50: 211 nM

COc1cc2c(Oc3ccc(NC(=O)NCCC(C)(C)C)cc3)ccnc2cc1OCCNC(C)CO (stereo not drawn) [Compound 361, 1-(3,3-Dimethyl-butyl)-3-(4-{7-[2-(2-hydroxy-1-methyl-ethylamino)-ethoxy]-6-methoxy-quinolin-4-yloxy}-phenyl)-urea]
IC50: 29.8 nM

COc1cc2c(Oc3ccc(NC(=O)NCCC(C)(C)C)cc3Cl)ccnc2cc1OCCN1CCC(CCO)CC1 [Compound 315, 1-[3-Chloro-4-(7-{2-[4-(2-hydroxy-ethyl)-piperidin-1-yl]-ethoxy}-6-methoxy-quinolin-4-yloxy)-phenyl]-3-(3,3-dimethyl-butyl)-urea]
IC50: 133 nM

COc1cc2c(Oc3ccc(NC(=O)NCCC(C)(C)C)cc3F)ccnc2cc1OCCCN1CCC(CO)CC1 [Compound 285, 1-(3,3-Dimethyl-butyl)-3-(3-fluoro-4-{7-[3-(4-hydroxymethyl-piperidin-1-yl)-propoxy]-6-methoxy-quinolin-4-yloxy}-phenyl)-urea]
IC50: 22.8 nM

CCN(CCO)CCCOc1cc2nccc(Oc3ccc(NC(=O)NCCC(C)(C)C)c(Cl)c3)c2cc1OC [Compound 345, 1-[2-Chloro-4-(7-{3-[ethyl-(2-hydroxy-ethyl)-amino]-propoxy}-6-methoxy-quinolin-4-yloxy)-phenyl]-3-(3,3-dimethyl-butyl)-urea]
IC50: 9.8 nM

COc1cc2c(Oc3ccc(NC(=O)NCCC(C)(C)C)cc3)ccnc2cc1OCCNCCO [Compound 372, 1-(3,3-Dimethyl-butyl)-3-(4-{7-[2-(2-hydroxy-ethylamino)-ethoxy]-6-methoxy-quinolin-4-yloxy}-phenyl)-urea]
IC50: < 10 nM

COc1cc2nccc(Oc3ccc(NC(=O)NCCC(C)(C)C)cc3OC)c2cc1OC [Compound 139, 1-[4-(6,7-Dimethoxy-quinolin-4-yloxy)-3-methoxy-phenyl]-3-(3,3-dimethyl-butyl)-urea]
IC50: 1160 nM

COc1cc2c(Oc3ccc(NC(=O)NCCC(C)(C)C)cc3F)ccnc2cc1OCCCN1CCC(CCO)CC1 [Compound 298, 1-(3,3-Dimethyl-butyl)-3-[3-fluoro-4-(7-{3-[4-(2-hydroxy-ethyl)-1-piperidin-1-yl]-propoxy}-6-methoxy-quinolin-4-yloxy)-phenyl]-urea]
IC50: 41.7 nM
